The values that follow come from US10940188B2, “Compounds and methods for treatment and prevention of Flavivirus infection” (priority 2016, dated 2021).

In series [1] the test system is forebrain-specific hNPCs infected by FSS13025. Kind of series: Immunostaining of ZIKV-infected forebrain-specific hNPCs (monolayer) for cleaved caspase-3 and ZIKVE. It is filed as cell-based, human. From the text:
FIGS. 1A-1, 1A-2, 1A-3, 1B-1, 1B-2, 1C-1, and 1C-2. Emricasan suppresses cell death of ZIKV-infected human astrocytes and hNPCs in 2D monolayer cultures and 3D brain organoids. Emricasan (FIG. 1A-1) inhibits caspase-3 activity and improves cell viability in human astrocytes infected with three different strains of ZIKV in a concentration dependent manner. Value represent mean±s.d. (n=3). The curves (FIGS. 1A-2 and 1A-3) represent best fit. (FIG. 1B) Sample images of immunostaining (FIG. 1B-1) of forebrain-specific hNPCs for ZIKV envelop protein (ZIKVE; green) and cleaved-caspase 3 (Cas3; red) and DAPI (gray) 72 hours after ZIKV FSS-13025 infection (MOI=0.04-0.08; Scale bar: 20 μm), and quantification (FIG. 1B-2). Values represent mean±s.e.m. (n=3; **P<0.01; Student's t-test). Sample images (FIG. 1C-1) of immunostaining of day 28 human forebrain-specific organoids for ZIKVE (green) and Cas3 (red) and DAPI (gray) 10 days after ZIKV FSS-13025 infection (Scale bar: 100 μm), and quantification (FIG. 1C-2). Values represent mean±s.e.m. (n=6; ***P<0.001; Student's t-test).
Cells were fixed with 4% paraformaldehyde (Sigma) for 15 min at room temperature. Samples were permeabilized and blocked with 0.25% Triton X-100 (Sigma) and 10% donkey or goat serum in PBS for 20 min as previously described (Chiang et al., 2011; [41]; Yoon et al., 2014). […]

Series [2] concerns liver injury in chronic Hepatitis C patients. As to conditions: chronic HCV patients; cited from earlier work.
For series [3], the system named is forebrain-specific brain organoids. Nature of the series: hNPC proliferation in forebrain organoids (phospho-Histone 3), compound alone. As to conditions: 3 days. It is filed as cell-based, human. The procedure: FIGS. 17A-17C. Analysis of potential toxicity of CDKis on human astrocyte viability and hNPC proliferation. Human iPSC-derived astrocytes (BJ line) were treated with each indicated compound (cpd) for 25 hours prior to cell viability analysis as measured in relative luciferase units for ATP production. Values represent mean+s.d. (n=3 cultures; ***P<0.001; **P<0.01; One-way ANOVA for comparison with the DMSO treatment). RLU: relative luminescence units. hNPCs were treated with saline, PHA-690509 (PHA, 1 μM) or Seliciclib (5 μM), 1 hour prior to ZIKV PRVABC59 infection (MOI=0.08). At 72 hours post infection, EdU (10 μM) was added to hNPCs and cells were cultured for additional 4 hours prior to fixation and staining for EdU and DAPI. Values represent mean+s.e.m. (n=3 cultures; ***P<0.001; One-way ANOVA for comparison with the mock treatment). Day 20 forebrain-specific brain organoids were treated with PHA-690509 (1 μM) or Seliciclib (5 μM) for 3 days and hNPC proliferation was evaluated by phospho-Histone 3 (PH3) expression within the ventricular zone. Values represent mean+s.e.m. (n=8 organoids; P>0.05; One-way ANOVA for comparison with the mock treatment).

For a further series, the system named is ZIKV MR766 NS1. Nature of the series: microbe, parasite or virus in culture. The format is cell-based, Zika virus. As to conditions: Zika virus, HEK293, 48 h, read-out: NS1-IC50. The procedure: A one-step NS1 TR-FRET (Time-resolved fluorescence resonance energy transfer) assay for a screen of anti-ZIKV compounds was carried out. Human embryonic kidney cell line HEK293 cells were seeded into 384-well plates and infected with ZIKV MR766 at a MOI of 0.5 for 2 days. The FRET assay was performed with two clones of anti-NS1 antibody (ab) differentially labelled with donor and acceptor fluorophores.

Molecules are shown by their SMILES. Entries after “also recorded” stand apart in the source; their conditions may differ.

Consider `C[C@H](NC(=O)C(=O)Nc1ccccc1C(C)(C)C)C(=O)N[C@@H](CC(=O)O)C(=O)COc1c(F)c(F)cc(F)c1F` [Emricasan], for which the “number of cleaved caspase-3-expressing hNPCs, monolayer” value in series [1] (FSS13025 infection, 72 hours) was “reduced the number of active (cleaved) caspase-3-expressing forebrain-specific hNPCs”. The “suppression of ZIKV replication (ZIKV antigen in 2D and 3D cultures)” value in series [1] (after Emricasan treatment) was “does not suppress ZIKV replication”. Also, the “liver injury and tolerability in clinical trials” value in series [2] was “reduced liver injury and was tolerated over 12 weeks; also recorded: well tolerated in human trials without significant adverse events”.
As for `CC(=O)Nc1ccc([C@H](C)C(=O)Nc2ncc(C(C)C)s2)cc1` [PHA-690509], the “effect of the treatment itself on hNPC proliferation” value in series [3] is “minimal effect on hNPC proliferation in brain organoids”.
In general, IC50 refers to the point on the concentration scale where inhibition reaches its midpoint. Regarding `CC[C@H]1CN2CCc3cc(OC)c(OC)cc3[C@@H]2C[C@@H]1C[C@H]1NCCc2cc(OC)c(OC)cc21` [Emetine], in the series with ZIKV MR766 NS1, the IC50 came to 114 nM.
